Assays:
[1] = tested on: Hepatotoxicity;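 on HepSE Combined Scores: combined hepatic side effect score as listed in the training data of the Drug Induced Liver Injury Prediction System (DILIps)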;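 on HepSE bilirubinemia: bilirubinemia hepatic side effect score drawn from the DILIps training data, a prediction system for drug-induced liver injury; call rule not given here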;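 on HepSE cholecystitis: Cholecystitis-related hepatic side effect score drawn from the DILIps (drug-induced liver injury prediction) training data set; call rule not given here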;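 on HepSE cholelithiasis: hepatic side effect score for cholelithiasis, drawn from the DILIps training data for predicting drug-induced liver injury; call rule not given here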;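 on HepSE cirrhosis: cirrhosis hepatic side effect score taken from the DILIps (drug-induced liver injury prediction) training set; call rule not given here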;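 on HepSE elevated liver function tests: hepatic side effect score for raised liver function tests, as recorded in the DILIps training set used for predicting drug-induced liver injury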; on HepSE hepatic failure: call rule not given here; on HepSE liver disease: call rule not given here
[2] = tested on: Hepatotoxicity; remark: listed apart in the source;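 on HepSE Combined Scores: combined hepatic side effect score as listed in the training data of the Drug Induced Liver Injury Prediction System (DILIps)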;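 on HepSE bilirubinemia: bilirubinemia hepatic side effect score drawn from the DILIps training data, a prediction system for drug-induced liver injury; call rule not given here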;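 on HepSE cholecystitis: Cholecystitis-related hepatic side effect score drawn from the DILIps (drug-induced liver injury prediction) training data set; call rule not given here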;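 on HepSE cholelithiasis: hepatic side effect score for cholelithiasis, drawn from the DILIps training data for predicting drug-induced liver injury; call rule not given here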;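 on HepSE cirrhosis: cirrhosis hepatic side effect score taken from the DILIps (drug-induced liver injury prediction) training set; call rule not given here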; on HepSE hepatic failure: call rule not given here; on HepSE liver disease: call rule not given here
[3] = tested on: Hepatotoxicity; remark: listed apart in the source;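 on HepSE Combined Scores: combined hepatic side effect score as listed in the training data of the Drug Induced Liver Injury Prediction System (DILIps)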;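 on HepSE bilirubinemia: bilirubinemia hepatic side effect score drawn from the DILIps training data, a prediction system for drug-induced liver injury; call rule not given here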;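 on HepSE cholecystitis: Cholecystitis-related hepatic side effect score drawn from the DILIps (drug-induced liver injury prediction) training data set; call rule not given here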;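 on HepSE cholelithiasis: hepatic side effect score for cholelithiasis, drawn from the DILIps training data for predicting drug-induced liver injury; call rule not given here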;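 on HepSE cirrhosis: cirrhosis hepatic side effect score taken from the DILIps (drug-induced liver injury prediction) training set; call rule not given here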; on HepSE hepatic failure: call rule not given here; on HepSE liver disease: call rule not given here
[4] = tested on: Hepatotoxicity; remark: listed apart in the source;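 on HepSE Combined Scores: combined hepatic side effect score as listed in the training data of the Drug Induced Liver Injury Prediction System (DILIps)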;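 on HepSE bilirubinemia: bilirubinemia hepatic side effect score drawn from the DILIps training data, a prediction system for drug-induced liver injury; call rule not given here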;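 on HepSE cholecystitis: Cholecystitis-related hepatic side effect score drawn from the DILIps (drug-induced liver injury prediction) training data set; call rule not given here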;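 on HepSE cholelithiasis: hepatic side effect score for cholelithiasis, drawn from the DILIps training data for predicting drug-induced liver injury; call rule not given here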;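 on HepSE cirrhosis: cirrhosis hepatic side effect score taken from the DILIps (drug-induced liver injury prediction) training set; call rule not given here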; on HepSE hepatic failure: call rule not given here; on HepSE liver disease: call rule not given here
[5] = tested on: Hepatotoxicity; remark: listed apart in the source; on HepSE hepatic failure: call rule not given here; on HepSE liver disease: call rule not given here
[6] = tested on: Hepatotoxicity; remark: listed apart in the source; on HepSE hepatic failure: call rule not given here; on HepSE liver disease: call rule not given here
[7] = tested on: Hepatotoxicity; remark: listed apart in the source
[8] = tested on: Hepatotoxicity; remark: listed apart in the source
[9] = tested on: Hepatotoxicity; remark: listed apart in the source
[10] = tested on: Hepatotoxicity; remark: listed apart in the source
[11] = tested on: Hepatotoxicity; remark: listed apart in the source
[12] = tested on: Hepatotoxicity; remark: listed apart in the source
[13] = tested on: Hepatotoxicity; remark: listed apart in the source
[14] = tested on: Hepatotoxicity; remark: listed apart in the source
[15] = tested on: Hepatotoxicity; remark: listed apart in the source
[16] = tested on: Hepatotoxicity; remark: listed apart in the source

C[C@@H](Cc1ccccc1)N(C)Cc1ccccc1 [BENZPHETAMINE]
DILI positive/negative [1]: 0

CN1C(=O)CCS(=O)(=O)C1c1ccc(Cl)cc1 (stereo unspecified) [CHLORMEZANONE]
DILI positive/negative [1]: 1

CN1c2c(oc(=O)n(-c3ccccn3)c2=O)-c2ccccc2S1(=O)=O [DROXICAM]
DILI positive/negative [1]: 1

CN1CCCC(CN2c3ccccc3Sc3ccccc32)C1 (stereo unspecified) [MEPAZINE]
DILI positive/negative [1]: 1

CCc1oc2ccccc2c1C(=O)c1ccc(O)cc1 [BENZARONE]
DILI positive/negative [1]: 1

CC(N)C(=O)OC(C)(C)Cc1ccc(Cl)cc1 (stereo unspecified) [ALAPROCLATE]
DILI positive/negative [1]: 1

C[C@H](N)C(=O)N[C@@H](C)C(=O)N[C@H]1[C@@H]2CN(c3nc4c(cc3F)c(=O)c(C(=O)O)cn4-c3ccc(F)cc3F)C[C@@H]21 [ALATROFLOXACIN]
DILI positive/negative [1]: 1

NC(=O)C1CCN(CCCN2c3ccccc3Sc3ccc(Cl)cc32)CC1 [PIPAMAZINE]
DILI positive/negative [1]: 1

CCCCN1C(=O)[C@@H]([C@H](O)C2CCCCC2)NC(=O)C12CCN(Cc1ccc(Oc3ccc(C(=O)O)cc3)cc1)CC2 [APLAVIROC]
DILI positive/negative [1]: 1

CC(NN)c1ccccc1 (stereo unspecified) [MEBANAZINE]
DILI positive/negative [1]: 1

Cc1cc(Br)c(O)c2ncccc12 [TILBROQUINOL]
DILI positive/negative [1]: 1

CCOC(Nc1ccc(C(=O)O)cc1)C(=O)c1ccc(-c2ccccc2)cc1 (stereo unspecified) [XENAZOIC ACID]
DILI positive/negative [1]: 1

CS(=O)(=O)CCNCc1ccc(-c2ccc3ncnc(Nc4ccc(OCc5cccc(F)c5)c(Cl)c4)c3c2)o1 [LAPATINIB]
DILI positive/negative [1]: 1

CN1c2ccccc2C(NCCCCCCC(=O)O)c2ccc(Cl)cc2S1(=O)=O (stereo unspecified) [TIANEPTINE]
DILI positive/negative [2]: 1

COc1ccc(CCN2CCC(Nc3nc4ccccc4n3Cc3ccc(F)cc3)CC2)cc1 [ASTEMIZOLE]
DILI positive/negative [2]: 0

CC(=O)c1ccc(S(=O)(=O)NC(=O)NC2CCCCC2)cc1 [ACETOHEXAMIDE]
DILI positive/negative [2]: 1

C[C@H](CCc1ccccc1)NC[C@H](O)c1ccc(O)c(C(N)=O)c1 [DILEVALOL]
DILI positive/negative [2]: 1

COc1cc(C(=O)NCc2ccc(OCCN(C)C)cc2)cc(OC)c1OC.Cl [TRIMETHOBENZAMIDE HYDROCHLORIDE]
DILI positive/negative [2]: 1

CC1CN(c2cc3c(cc2F)c(=O)c(C(=O)O)cn3-c2ccc(F)cc2F)CCN1 (stereo unspecified) [TEMAFLOXACIN]
DILI positive/negative [2]: 1

CCN(CC)CCOc1ccc(C(=C(Cl)c2ccccc2)c2ccccc2)cc1 [CLOMIPHENE]
HepSE_liver disease [3]: 0
HepSE_bilirubinemia [4]: 0
HepSE_hepatic necrosis [5]: 0
HepSE_cholelithiasis [6]: 0
HepSE_Combined Scores [7]: 1
HepSE_liver fatty [8]: 0
HepSE_cirrhosis [9]: 0
HepSE_cholecystitis [10]: 0
DILI positive/negative [2]: 1
HepSE_hepatic failure [11]: 0
HepSE_elevated liver function tests [12]: 0
HepSE_hepatitis [13]: 1
HepSE_liver function tests abnormal [14]: 0
HepSE_hepatomegaly [15]: 0
HepSE_jaundice [16]: 0

CCSCC[C@H](N)C(=O)O [ETHIONINE]
DILI positive/negative [2]: 1

C=C1c2cccc(O)c2C(=O)C2=C(O)[C@]3(O)C(=O)C(C(N)=O)=C(O)[C@@H](N(C)C)[C@@H]3[C@@H](O)[C@H]12.Cl [METHACYCLINE HYDROCHLORIDE]
DILI positive/negative [2]: 1

Nc1ncnc2c1ncn2[C@@H]1O[C@H](CO)[C@@H](O)[C@@H]1O [VIDARABINE]
DILI positive/negative [2]: 0

Oc1c(Cl)cc(Cl)cc1Sc1cc(Cl)cc(Cl)c1O [BITHIONOL]
DILI positive/negative [2]: 1

Cl.NCCNCCNCCN
DILI positive/negative ([2]; Liver): 1

CC(C)(Sc1cc(C(C)(C)C)c(O)c(C(C)(C)C)c1)Sc1cc(C(C)(C)C)c(O)c(C(C)(C)C)c1 [PROBUCOL]
DILI positive/negative [2]: 0

CCN(CC)CCNc1ccc(CO)c2sc3ccccc3c(=O)c12 [HYCANTHONE]
DILI positive/negative [2]: 1
